Here are results for three compounds from patent US20240277653A1, “USE OF FURANCARBOXYLIC ACIDS IN THE PREPARATION OF ADDITIVES FOR ANIMAL FEEDS” (ANIPHA TECHNOLOGIES PTY LTD, priority 2021, published 2024).

The test system of test [1] is yellow-feathered broilers. Briefly: Use of furancarboxylic acids in a feed for chicken (broiler performance). The note with it: 1-day-old broilers, basal diet comprising 1000 ppm test article, 20 days, mean. The test is classed as in vivo. From the text:
This experiment adopted a single-factor randomization design. 480 1-day-old broilers with an average body weight of 50 g were selected and randomly divided into 4 groups, with 6 replicates in each group, half male and female, 20 yellow-feathered broilers per replicate. The chicken house and utensils were disinfected before the test. During the period of test, broilers were kept in cages under the same feeding and management conditions. The basal diet is mainly based on corn-soybean meal, and other antioxidants and growth promoters are not added during the whole feeding. The test groups are shown in Table 2, among which, group I was the control group, and was only fed with the basal diet; test groups II, III and IV were fed with the basal diet comprising 1000 ppm of a compound of furancarboxylic acids shown in Table 2, respectively. The test lasted 20 days, and the test broilers were fed with food and water ad libitum, and were fed twice a day. Test broilers in each replicate were weighed at 21 days of age (stop feeding for 12 hours and keep water). The feed consumption of the test broilers was counted, and the average daily feed intake (ADFI, g/d*broiler), average daily weight gain (ADG, g/d*broiler) and feed conversion ratio (FCR) of each test broiler were calculated.

A further test concerns weaned piglets. The test is described as follows: Effects of furancarboxylic acids on performance of weaned piglets. In kind it is in vivo, Duroc-landrace-yorkshire swine. The note with it: 65-day-old pigs, basal diet comprising 2000 ppm test article, 28 days, mean. From the text: A total of 120 65-day-old Duroc-landrace-yorkshire swine with similar body weight were randomly divided into 4 groups, each with 3 replicates, half male and female, […]. The pigpen and utensils were disinfected before the test. During the period of test, pigs were kept in separate pens under the same feeding and management conditions. During the test, the test pigs were fed with food and water ad libitum, and were fed twice a day. The test groups are shown in Table 1, among which, group I was the control group, and was only fed with the basal diet; test groups II, III and IV were fed with the basal diet comprising 2000 ppm of a compound of furancarboxylic acids shown in Table 1, respectively. […] The test lasted 28 days, and the performances of the test pigs, for example, the average daily feed intake (ADFI, g/d*pig), average daily weight gain (ADG, g/d*pig) and feed conversion ratio (FCR) of each pig were counted.

Another test concerns grass carp fingerlings. The test is described as follows: Use of furancarboxylic acids in a feed for fish (grass carp growth-promoting test). In kind it is in vivo. The conditions noted are these: 500 ppm in test feed, 8 weeks; for Weight gain: 100×(final−initial)/initial weight; for FCR (feed conversion rate): feed intake/weight gain. The method, then: Test fish: The test fish used were the healthy and lively grass carp fingerlings of the same year and were reared in a large cage (4×2×1.5 m^3) for 4 weeks before being used for formal breeding tests. The experimental system was a small floating cage (with size of 1.1×1.1×1.1 m^3); each small cage is equipped with a bubbling head, and bubbling 24 hours a day. The small cages and the temporary cages were placed in a test facility, a 3500 m^2 pond, the pond depth was about 1.5 m, and the pond water was fully aerated bottom water. During the test, 240 grass carps that had been starved for 1 day were randomly divided into 3 groups, each group was provided with 4 replicates, and 20 fish were placed in each replicate. Each replicate was weighed and placed into 12 cages, respectively fed with a test feed supplemented with a compound of furancarboxylic acids.
Test feed: The test feed was prepared according to the formula in Table 3, and 500 ppm of a compound of furancarboxylic acids were added to different test groups according to Table 4. The feedstuff used was ultrafinely grinded and then passed through the Jiangsu Muyang extruder to make a floating extruded feed with a particle size of 3 mm. The mold release temperature was 130° C., and 3% soybean oil was sprayed externally through the oil injection equipment, and sealed in a cool place for use.
Procedures: The experiment adopts artificial food restriction feeding, the feeding amount is adjusted once a week, the feeding level (based on the initial body weight) of each group is exactly the same, feeding twice a day (at 7:30 am and 15:00 pm), and the total feeding amount is 580 g per replicate. The test lasted 8 weeks. The water quality was monitored regularly during the test. The water temperature was 26.88±3.08° C., with DO>5.0 mg O L^−1, pH 7.8, ammonia nitrogen <0.50 mg N L^−1, and nitrite nitrogen <0.05 mg N L^−1 during the whole breeding process.
Parameter statistics: During the test, the fish in each cage were weighed as a whole 1 day of stopping feeding, and their weight gain (WG, %), feed conversion rate (FCR) and survival rate (SR, %) were calculated as follows:
Weight gain (WG, %)=100×(average final weight−average initial weight)/average initial weight;
Feed conversion rate (FCR)=feed intake/weight gain of fish;
Survival rate (SR, %)=100×number of fish at the end of the experiment/number of fish at the beginning of the experiment.

`O=C(O)c1coc(C(=O)O)c1` [2,4-Furandicarboxylic acid]: in test [1], the “ADFI (average daily feed intake)” value amounted to 36.5 g/d*broiler, the “ADG (average daily weight gain)” value is 17.4 g/d*broiler and the “FCR (feed conversion ratio)” value is reported as 2.10. In addition, in the test on weaned piglets, the “ADFI (average daily feed intake)” value turned out to be 1263 g/d*pig, the “ADG (average daily weight gain)” value was determined as 507 g/d*pig and the “FCR (feed conversion ratio)” value came to 2.490.
Regarding `O=C(O)c1ccco1` [2-Furancarboxylic acid], in test [1], the “ADFI (average daily feed intake)” value worked out at 35.2 g/d*broiler, the “ADG (average daily weight gain)” value is on record as 16.9 g/d*broiler and the “FCR (feed conversion ratio)” value is listed as 2.08. Also, in the test with grass carp fingerlings, the Average final weight is listed as 586.87 g, the “SR (survival rate)” value was 82.50%, the Weight gain stood at 134.96% and the “FCR (feed conversion rate)” value is on record as 1.48. Besides, in the test on weaned piglets, the “ADFI (average daily feed intake)” value is recorded as 1274 g/d*pig, the “ADG (average daily weight gain)” value was determined as 512 g/d*pig and the “FCR (feed conversion ratio)” value is recorded as 2.489.
Regarding `O=C(O)c1ccoc1` [3-Furancarboxylic acid], in test [1], the “ADFI (average daily feed intake)” value came to 34.0 g/d*broiler, the “ADG (average daily weight gain)” value is on record as 16.4 g/d*broiler and the “FCR (feed conversion ratio)” value is reported as 2.07. Besides, in the test with grass carp fingerlings, the Average final weight came to 589.33 g, the “SR (survival rate)” value is 83.75%, the Weight gain was determined as 138.98% and the “FCR (feed conversion rate)” value turned out to be 1.48. Moreover, in the test on weaned piglets, the “ADFI (average daily feed intake)” value is 1240 g/d*pig, the “ADG (average daily weight gain)” value is given as 498 g/d*pig and the “FCR (feed conversion ratio)” value is reported as 2.491.
